Measurements as given in article PMC10223284, “Category-Based Toxicokinetic Evaluations of Data-Poor Per- and Polyfluoroalkyl Substances (PFAS) using Gas Chromatography Coupled with Mass Spectrometry” (Toxics, 2023).
Several values for one entry are separate records, joined by “and”; a condition that tells them apart may be missing. Equal values may be shown once. Read-outs that look alike come from different tables or passages of the source.

Experiments:
human plasma [1] = experiment: Ultracentrifugation (UC) plasma protein binding assay, fraction unbound in plasma (fup); details: for fup: human plasma, 10 μM, ultracentrifugation, 37 °C; for Fup.Med: median fraction unbound in plasma; for Fup.Med / Fup.point: UC assay Level4; for Fup.point: point estimate of fraction unbound in plasma
in vitro = details: both, human, plasma
[2] = In vitro-in vivo extrapolation (IVIVE) to Css and administered equivalent dose (AED); parameters: species or system human; details: for Clhep: IVIVE, hepatocyte Clint scaled to whole-liver clearance; for AED: administered equivalent dose from LOEC and Css; for Fub: fub=fup/(B:P), Fub set to 1 if needed; for CLint: scaled with HPGL 110 mill cells/g, Vl 1596 g
Protocol: Using the experimentally generated PPB (fraction unbound in plasma, fup) and hepatic Clint data, IVIVE was performed as previously described to calculate human steady-state plasma concentrations (Css). Briefly, experimental measures of fup are adjusted using blood:plasma partitioning information to estimate the fraction unbound in blood (fub). Experimental hepatocyte Clint data are scaled up to represent whole-liver clearance (L/h). […] Once estimated, these Css values are considered in conjunction with published in vitro bioactivity concentrations (i.e., lowest-observed effective concentrations, or LOECs) to calculate AEDs (Table 2). See Table S10 for all relevant IVIVE inputs, scalars, calculations, and outputs.

[3] = test system: pooled human cryopreserved primary hepatocyte suspensions; experiment: Hepatic metabolic stability (hepatocyte clearance) assay, substrate depletion; type: in vitro ADME; details: for Linear Regression Results, Best-Fit Values, Slope: hepatocyte time course
Text: (§1) William’s Medium E (Gibco A1217601), dexamethasone, and cell maintenance cocktail B (Gibco CM4000) were obtained from Thermo Fisher Scientific (Waltham, MA, USA). Hepatosure OptiThaw media (P/N K8000; Lot No. 18–1–0322) was obtained from Sekisui Xenotech (Kansas City, KS, USA). Trypan blue solution (P/N 1450021) was obtained from Bio-Rad (Hercules, CA, USA). Pooled human cryopreserved primary hepatocyte suspensions were obtained from BioIVT (Westbury, NY, USA) and produced using nontransplantable tissue. The human 50-donor pool (mixed gender; Cat X0080005; Lot MYC), selected from BioIVT’s commercially available, prepooled lots, was selected following review of vendor-generated metabolic characterization information. Pooled, mixed-sex human plasma from de-identified donors was obtained from a commercial vendor that operates a U.S. Food and Drug Administration-licensed and inspected donor center (BioIVT bioivt.com (accessed 12 May 2023). Donors comprised five males and five females and ranged from 20 to 50 years of age. Plasma collected using anticoagulant K2EDTA was sterile-filtered ([…]) and stored at <−70 °C until use.
(§2) The hepatic metabolic stability assay measures the loss of a parent compound over time in a substrate-depletion approach. Briefly, hepatocyte suspensions, after a viability assessment, were diluted in complete William’s medium E (containing dexamethasone and cell maintenance cocktail B) prior to addition to 96-well polypropylene plates containing an equal volume of media spiked with the test compound (1 μM assay concentration; assay cell density = 50,000 cells/100 μL) and maintained at 37 °C with shaking. At each time point, relevant plates were crashed with an equal volume of ice-cold acetonitrile, centrifuged, and supernatant transferred to a new plate prior to storage at <−70 °C until quantitative analysis. Controls, run in parallel, included cell-free (i.e., media only) and metabolically inactivated hepatocytes to evaluate abiotic chemical stability in the aqueous media matrix with and without cellular protein. In preliminary runs, these controls were run at T0 and T240 only. If significant instability was noted, the hepatocyte clearance assay was rerun, including cell-free samples at each time point and metabolically inactivated hepatocytes at selected time points.
(§3) To process samples for quantitative analysis, samples were thawed and mixed. An aliquot of sample was removed and diluted in acetonitrile (1 part sample plus 9 parts acetonitrile) containing the relevant ISs selected for the PFAS being analyzed (See Table S2). The target at instrument concentration of each IS was 10 pg/μL.
(§4) The curves were generated using concentration/response ratios from the target analyte and IS, with either linear or quadratic regression models. The model and weighting, if necessary, were chosen to most accurately reflect the response of each compound and was evaluated by recalculating the individual calibration points using the curve. An acceptable model reflected an accuracy of ±30% of the theoretical value.
(§5) Hepatic metabolic clearance data were plotted in semi-log format (ln concentration vs. time) with three replicates at each time point, as previously described. […] The equations described below are used to calculate the chemical half-life (T½) and intrinsic in vitro clearance (Clin vitro) with units of μL/(min × million hepatocytes). In Equation (3), 2000 is a scalar used to adjust the assay cell number up to be consistent with units of 1 million cells in the Clint equation.
(§6) Negative controls, including media only and metabolically inactivated hepatocyte controls, were included to monitor abiotic loss (i.e., background clearance) during the assay. Where significant compound loss occurred using the analysis described above, background clearance rates were calculated and used to background-adjust hepatic metabolic clearance rates. […]

[4] = as above; type: in vitro ADME, human; details: both sexes, human; for half-life at 1 μM: read-out: Linear Regression Results, Best-Fit Values, Half Life
Text: as §1, §2, §3, §4, §5, §6

human primary cells = details: cited from earlier work
human plasma [5] = experiment: Chemical stability in plasma over the UC assay time course (T5hr/T1hr); details: for Stability (T5hr/ T1hr), Run-specific Avg: average of one UC run (run date in line above); for PPB_Stab_Fail: flag for stability failure in the plasma protein binding assay (1 = fail, 0 = pass); for Mean Stability: mean T5hr/T1hr ratio over all replicates and runs, plasma; for Fstable.Med: median fraction stable in plasma, UC assay Level4
[6] = Abiotic loss in negative controls of the hepatocyte clearance assay (cell-free media, metabolically inactivated hepatocytes); type: in vitro ADME; details: for half-life at 1 μM / HT BkgdCl, Slope / No Cells BkgdCl, Slope: 0 vs 240 min; for Hep_Stab_Fail: flag for stability failure in hepatocyte clearance assay controls (1 or Fst = fail, 0 = pass); for Negative Controls, Heat Treated (HT), concentration at 0 min / Negative Controls, Heat Treated (HT), concentration at 240 min: heat treated hepatocytes; for Negative Controls, Heat Treated (HT), concentration at 0 min / Negative Controls, Heat Treated (HT), concentration at 240 min / Negative Controls, No cells (NC), concentration at 0 min / Negative Controls, No cells (NC), concentration at 240 min: Rep 1-3
Summary of the method: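 Test compound at 1 μM incubated at 37 °C with shaking in complete William's medium E, either cell-free or with metabolically inactivated hepatocytes, then quenched with ice-cold acetonitrile for quantitative analysis.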

[7] = Fraction Unbound (fu), Run-specific Avg, average of one UC run (run date in line above)
[8] = Mean fu, fraction unbound in human plasma, ultracentrifugation, some values based on eLOQ
[9] = Assuming 1 mg/kg/day dose rate, BW 70 kg
[10] = human steady-state plasma concentration, assuming 1 mg/kg/day dosage
[11] = hepatocyte incubation, Rep 1-3, start conc 1000 nM
[12] = hepatocytes, background-subtracted, read-out: Bkgd-Sub Clearance (µL/min/106 hepatocytes)
[13] = hepatocytes, hepatocyte clearance, Conc 1000 nM, not background adjusted, read-out: Unadj Clint
[14] = hepatocytes, pooled human hepatocyte suspensions, 1 μM, read-out: In Vitro Clint
[15] = hepatocytes, unadjusted hepatocyte intrinsic clearance, read-out: Unadj in vitro Clint
[16] = hepatocytes, hepatocyte time course, NS = slope not significant, read-out: Linear Regression Results, Best-Fit Values, Clearance
[17] = hepatocytes, hepatocyte time course, NS = slope not significant
[18] = BioSeek lowest-observed effect concentration used for AED
[19] = minimum lowest-observed effect concentration, BioSeek platform
[20] = buffer, no cells control, read-out: No Cells BkgdCl, Half Life
[21] = heat treated hepatocytes control

## OCC(F)(F)C(F)(F)C(F)(F)C(F)(F)C(F)(F)C(F)(F)CO [1H,1H,8H,8H-Perfluorooctane-1,8-diol]
Human plasma [1]; amount measured in aqueous fraction after ultracentrifugation, replicates A, B, C, unit not given
  Aqueous Fraction: 467.47 and 486.886 and 467.528 and 459.225 and 404.056 and 403.816
Human plasma [1]
  fup: 0.0560
  Fup.Med: 0.0465
  Fup.point: 0.0506
In vitro; [7]
  fraction unbound: 0.0529
In vitro; Fraction Unbound (fu), individual replicates A, B, C of the UC run named in c8
  fraction unbound: 0.0626
In vitro; [8]
  fraction unbound: 0.056
[2]; [9]
  Css: 0.16 mg/L and 0.45 uM
[2]
  Clhep: 17.326 L/h
  AED: 15.5263 mg/kg/day
  Fub: 0.1018
  CLint: 3512253 µL/min
[2]; [10]
  Css: 0.45 µM
[3]; [11]
  Concentration (nM), Time 0 min: 833.88 nM and 886.538 nM and 918.72 nM
  Concentration (nM), Time 15 min: 552.068 nM and 564.688 nM and 626.636 nM
  Concentration (nM), Time 30 min: 572.698 nM and 772.55 nM and 675.577 nM
  Concentration (nM), Time 60 min: 915.509 nM and 882.56 nM and 951.955 nM
  Concentration (nM), Time 120 min: 252.926 nM and 197.823 nM and 212.459 nM
[3]
  Linear Regression Results, Best-Fit Values, Slope: -0.01141
[4]; [12]
  hepatocyte CLint at 1 μM: 20 µL/min/1e6 cells
[4]; [13]
  hepatocyte CLint at 1 μM: 22.8 µL/min/1e6 cells
[4]; [14]
  hepatocyte CLint at 1 μM: 20 µL/min/1e6 cells
[4]; [15]
  hepatocyte CLint at 1 μM: 22.8 µL/min/1e6 cells
[4]; [16]
  hepatocyte CLint at 1 μM: 22.8 µL/min/1e6 cells
[4]; [17]
  half-life at 1 μM: 1.01 h
[4]; s9, Bayesian analysis median, 1 μM assay concentration (Table S9), read-out: Clint.1.Med
  hepatocyte CLint at 1 μM: 5.03 µL/min/1e6 cells
Human primary cells; [18]
  LOEC: 7.00 µM
Human primary cells; [19]
  LOEC: 7 µM
Human plasma [5]; amount measured in plasma sample at 1 hr, replicates A, B, C, unit not given
  Time 1 hr: 8242.79 and 6998.48 and 7495.85 and 8652.78 and 7694.03 and 8210.48
Human plasma [5]; amount measured in plasma sample at 5 hr, replicates A, B, C, unit not given
  Time 5 hr: 7470.56 and 8168.83 and 8821.07 and 7477.64 (2×) and 9359.65
Human plasma [5]
  Stability (T5hr/ T1hr), Run-specific Avg: 0.913
  PPB_Stab_Fail: 0
  Mean Stability: 0.997
  Fstable.Med: 0.989
[6]; [20]
  half-life at 1 μM: 8.21 h
[6]
  Hep_Stab_Fail: 0
  Negative Controls, Heat Treated (HT), concentration at 0 min: 1090.28 nM and 973.38 nM and 645.077 nM
  Negative Controls, Heat Treated (HT), concentration at 240 min: 595.287 nM and 737.448 nM and 742.842 nM
  Negative Controls, No cells (NC), concentration at 0 min: 937.465 nM and 878.747 nM and 1163.86 nM
  Negative Controls, No cells (NC), concentration at 240 min: 676.807 nM and 658.518 nM and 781.013 nM
[6]; [21]
  HT BkgdCl, Slope: -0.00103
[6]; no cells control
  No Cells BkgdCl, Slope: -0.001407

## Cc1ccc(S(=O)(=O)OCC(F)(F)C(F)(F)C(F)(F)C(F)(F)C(F)(F)C(F)F)cc1 [1H,1H,7H-Perfluoroheptyl 4-methylbenzenesulfonate]
Human plasma [1]
  fup: 0.0290
  Fup.Med: 0.116
  Fup.point: 0.0275
Human plasma [1]; single replicate of one UC run (aqueous fraction / Time 5 hr)
  Fraction Unbound (fu), replicates A, B, C: 0.01902 and 0.02822 and 0.04008
In vitro; [7]
  fraction unbound: 0.03
In vitro; [8]
  fraction unbound: 0.029
[2]; [9]
  Css: 4.87 mg/L and 10.01 uM
[2]
  Clhep: 0.588 L/h
  AED: 0.6995 mg/kg/day
  Fub: 0.002357
  CLint: 4187106 µL/min
[2]; [10]
  Css: 10.01 µM
[3]; [11]
  Concentration (nM), Time 15 min: 1073.03 nM and 1187.92 nM and 943.206 nM
  Concentration (nM), Time 30 min: 985.478 nM and 1012.58 nM and 870.92 nM
  Concentration (nM), Time 60 min: 899.811 nM and 874.355 nM and 982.505 nM
[3]
  Linear Regression Results, Best-Fit Values, Slope: -0.01549
[4]; [12]
  hepatocyte CLint at 1 μM: 23.9 µL/min/1e6 cells
[4]; [13]
  hepatocyte CLint at 1 μM: 31 µL/min/1e6 cells
[4]; [14]
  hepatocyte CLint at 1 μM: 23.9 µL/min/1e6 cells
[4]; [15]
  hepatocyte CLint at 1 μM: 31 µL/min/1e6 cells
[4]; [16]
  hepatocyte CLint at 1 μM: 31 µL/min/1e6 cells
[4]; [17]
  half-life at 1 μM: 0.746 h
Human primary cells; [18]
  LOEC: 7.00 µM
Human primary cells; [19]
  LOEC: 7 µM
Human plasma [5]
  Stability (T5hr/ T1hr), Run-specific Avg: 0.983
  PPB_Stab_Fail: 0
  Mean Stability: 1.006
  Fstable.Med: 1
Human plasma [5]; single replicate of one UC run
  Stability (T5hr/ T1hr), replicates A, B, C: 0.9436 and 0.9774 and 1.0981
[6]; both sexes, human, heat treated hepatocytes control, read-out: HT BkgdCl, Half Life
  half-life at 1 μM: 2.62 h
[6]; [20]
  half-life at 1 μM: 3.24 h
[6]
  Hep_Stab_Fail: 0
  Negative Controls, Heat Treated (HT), concentration at 0 min: 1655.88 nM and 1540.88 nM and 2130.45 nM
  Negative Controls, Heat Treated (HT), concentration at 240 min: 752.335 nM and 712.914 nM and 422.601 nM
  Negative Controls, No cells (NC), concentration at 0 min: 1381.59 nM and 1965.43 nM and 2200.38 nM
  Negative Controls, No cells (NC), concentration at 240 min: 723.371 nM and 790.633 nM and 803.182 nM
[6]; [21]
  HT BkgdCl, Slope: -0.004413
[6]; no cells control
  No Cells BkgdCl, Slope: -0.003563
